Assay results as given in US20230357271A1, “MACROCYCLIC COMPOUND” (Asahi Kasei Pharma Corporation, priority 2020, published 2023).
Where two headings read alike, the source gives them in different places.

How the values were obtained:
[1] = cn_pd bond
[2] = from CC(C)(C)OC(=O)N1CC[C@@H](O)C[C@H]1C(=O)NCCCOc1c(OCc2ccccc2)ccc2ncc(O)cc12; ether bond; 14-membered ring; PPh3/DTBAD; toluene; 11.0 mM; 1.5 h
[3] = target: human IRAK-4 (Homo sapiens (Human), UniProt Q9NWZ3); assay: Measurement of human IRAK-4 inhibitory activity (TR-FRET); assay type: biochemical; conditions: 1 nM IRAK-4, 0.5 µM peptide substrate, 10 µM ATP, 23° C., 30 minutes
Sequence of human IRAK-4 (Q9NWZ3 whole entry): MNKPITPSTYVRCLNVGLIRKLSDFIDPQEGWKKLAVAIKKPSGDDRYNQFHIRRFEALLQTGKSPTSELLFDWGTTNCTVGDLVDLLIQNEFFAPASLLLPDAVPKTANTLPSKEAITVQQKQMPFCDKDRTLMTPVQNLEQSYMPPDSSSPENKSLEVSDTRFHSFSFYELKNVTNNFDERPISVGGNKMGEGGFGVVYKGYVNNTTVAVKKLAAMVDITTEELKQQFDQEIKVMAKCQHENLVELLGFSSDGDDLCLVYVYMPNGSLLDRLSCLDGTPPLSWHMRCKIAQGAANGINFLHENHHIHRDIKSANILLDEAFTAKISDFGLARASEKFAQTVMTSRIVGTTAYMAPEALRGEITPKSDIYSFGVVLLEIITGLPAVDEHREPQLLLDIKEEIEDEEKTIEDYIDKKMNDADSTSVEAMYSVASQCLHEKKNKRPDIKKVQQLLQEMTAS
Method: For the measurement of the activity of the human IRAK-4 (Invitrogen, Cat. PV3362), phosphorylation of the IRAK-4 peptide substrate (biotin-KKKKRFSFKKSFKC) by the enzyme in the presence of 10 µM ATP (Sigma-Aldrich, Cat. A7699) was measured by the TR-FRET method. The enzymatic reaction was performed in a reaction buffer containing 50 mM HEPES (pH 7.2), 1 mM DTT, 0.1 mM Na3VO4, 5 mM MgCl2, 1 mM MnCl2, and 0.1% bovine serum albumin. For the measurement of the IRAK-4 inhibitory activity, a test compound was added to the reaction buffer containing 1 nM IRAK-4, 0.5 µM peptide substrate, and 10 µM ATP, and the mixture was incubated at 23° C. for 30 minutes. Then, a detection solution containing an antibody labeled with europium cryptate (0.3 µg/mL, the antibody was prepared by using the IRAK-4 peptide substrate as the antigen), streptavidin-XL665 (2 µg/mL, CisBio, Cat. 610SAXLB), 50 mM HEPES (pH 7.2), 0.1% BSA, 120 mM KF, and 66.7 mM EDTA (all the concentrations of the reagents are final concentrations) was added to terminate the reaction, and then the mixture was further incubated at 23° C. for 60 minutes. Fluorescence intensity was measured at wavelengths of 665 nm and 620 nm with a microplate reader, and the enzymatic activity was calculated as the ratio of fluorescence intensities at 665 nm and 620 nm (665 nm/620 nm).
When the measurement was performed in multiplicate, the results are represented with average values.

[4] = system: human acute monocytic leukemia cell strain THP-1; assay: LPS-stimulated TNFα production inhibition test using THP-1 cells; assay type: cell-based; conditions: LPS 2.5 ng/mL, TNFα by HTRF
Method: By the THP-1 assay, influence of a test compound on the TNFα production induced by LPS stimulation can be evaluated. The THP-1 cells (ATCC, Cat. TIB-202) were inoculated on a 96-well plate at a density of 1 × 10^5 cells/160 µL/well, a test compound was added in a volume of 20 µL, and the plate was incubated at 37° C. for 1 hour in a 5% CO2 incubator. Then, LPS in a volume of 20 µL (final concentration 2.5 ng/mL, Sigma, Cat. L2630) was added, and the plate was further incubated for 4 hours. After the incubation, the plate was centrifuged, and 100 µL of the supernatant was taken from each well, and used for evaluation of the amount of TNFα using HTRF (Cisbio, Cat. 62TNFPEB). In the measurement of the amount of TNFα, the supernatant was diluted twice with the medium, and then added to wells of a 384-well plate in a volume of 10 µL, then anti-TNFα-cryptate (5 µL), and anti-TNFα-XL665 (5 µL) were added, and the plate was left standing overnight. The fluorescence intensity ratio for the wavelengths of 620 and 665 nm (620 nm/665 nm) was measured with a microplate reader, and the amount of TNFα in the supernatant was calculated by using a calibration curve. The TNFα production suppression ratio observed with no addition of LPS was defined to be 100%, the TNFα production suppression ratio observed with no addition of the test compound was defined to be 0%, and IC50 of the test compound was calculated by using the 4-parameter logistic model of the data analysis software XLfit (ID Business Solutions Ltd.).
When the measurement was performed in multiplicate, the results are represented with average values. The values were rounded to the fourth decimal place.

Row | Compound | IC50 [3] | IC50 ([4]; Homo sapiens, THP-1, 4 h) | further results
1 | CC1CC2C[C@@H](C(=O)NCC/C=C/c3c(OCc4ccccc4)ccc4ncc(cc34)N2)N1C (stereo partly shown) |  |  | ring closure, yield of all isomers ([1]; from CC1CC(N)C[C@@H](C(=O)NCC/C=C/c2c(OCc3ccccc3)ccc3ncc(Br)cc23)N1C, Pd2(dba)3 / XPhos / sodium phenoxide, 1,4-dioxane, 97.4 mM, 101.0 °C, 14.0 h): 75%
2 | CC(C)(C)OC(=O)N1CC[C@H]2C[C@H]1C(=O)NCCCOc1c(OCc3ccccc3)ccc3ncc(cc13)O2 |  |  | ring closure, isolated yield [2]: 72%
3 | CCC(O)COCc1ncc(-c2ccc3ncc4nc3c2OCCCNC(=O)[C@@H]2C[C@H](CCN2C)N4)cn1 (stereo partly shown) [a-01-17] | 3.04 nM | 0.099 µM | 
4 | CN1CCCOc2c(-c3cnc(CO)s3)ccc3ncc(nc23)N[C@H]2CCN(C)[C@@H](C2)C1=O [a-01-18] | 1.84 nM | 0.104 µM | 
5 | CCCOCc1ncc(-c2ccc3ncc4cc3c2OCCCOC(=O)[C@@H]2C[C@H](CCN2)N4)cn1 [a-02-05] | 2.47 nM | 0.023 µM | 
6 | Cc1ncc(-c2ccc3ncc4nc3c2OCC2(CC2)CNC(=O)[C@@H]2C[C@H](CCN2C)N4)cn1 [a-01-25] | 4.43 nM | 0.141 µM | 
7 | CN1CC[C@H]2C[C@H]1C(=O)NCCCCCOc1c(-c3cncnc3)ccc3ncc(nc13)N2 [a-01-39] | 5.12 nM | 0.204 µM | 
8 | CN1CCC2CC1(C)C(=O)NCC(F)COc1c(OCc3ccccc3)ccc3ncc(cc13)N2 (stereo not shown) |  |  | ring closure, yield of all isomers ([1]; from CN1CCC(N)CC1(C)C(=O)NCC(F)COc1c(OCc2ccccc2)ccc2ncc(Br)cc12, Pd2(dba)3 / XPhos / sodium phenoxide, 1,4-dioxane, 107.0 mM, 101.0 °C, 14.0 h): 32%
9 | CN1CC[C@H]2C[C@H]1C(=O)NCC1(CC1)COc1c(-c3cnc(CO)s3)ccc3ncc(nc13)N2 [a-01-02] | 0.89 nM | 0.044 µM | 
10 | CCCOCc1ncc(-c2ccc3ncc4nc3c2OCCCNC(=O)[C@@H]2C[C@H](CCN2CC)N4)cn1 [a-01-35] | 2.84 nM | 0.178 µM | 
11 | CCCOCc1ncc(-c2ccc3ncc4nc3c2OCC(F)(F)CNC(=O)[C@@H]2C[C@H](CCN2C)N4)cn1 [a-01-23] | 1.21 nM | 0.124 µM | 
12 | CN1CC[C@H]2C[C@H]1C(=O)NCC1(CCC1)COc1c(-c3cnc(CO)s3)ccc3ncc(nc13)N2 [a-01-44] | 2.36 nM | 0.21 µM | 
13 | CCCOCc1ncc(-c2ccc3ncc4cc3c2OCCCOC(=O)[C@@H]2C[C@H](CCN2C)N4)cn1 [a-02-10] | 2.96 nM | 0.043 µM | 
14 | CCCOCc1ncc(-c2ccc3ncc4nc3c2OCC(F)CNC(=O)[C@@H]2C[C@H](CCN2C)N4)cn1 (stereo partly shown) [a-01-05] | 1.37 nM |  | IC50 ([4]; 4 hours): 0.048 µM
15 | Cc1ncc(-c2ccc3ncc4nc3c2OCCCN(C)C(=O)[C@@H]2C[C@H](CCN2C)N4)cn1 [a-01-42] | 6.61 nM | 0.246 µM | 
16 | CCCOCc1ncc(-c2ccc3ncc4nc3c2OCCCNC(=O)[C@@H]2C[C@H](CCN2C)N4)cn1 [a-01-07, (3^2S,3^4S)-3^1-Methyl-1^7-(2-(propoxymethyl)pyrimidin-5-yl)-9-oxa-2,5-diaza-1(2,8)-quinoxalina-3(4,2)-piperidinacyclononaphan-4-one] | 1.49 nM | 0.057 µM | 
17 | CN1CC[C@H]2C[C@H]1C(=O)NCCCCOc1c(-c3cncnc3)ccc3ncc(nc13)N2 [a-01-30] | 2.8 nM | 0.162 µM | 
18 | CCCOCc1ncc(-c2ccc3ncc4cc3c2OCC(F)CNC(=O)[C@@H]2C[C@H](CC(C)N2C)N4)cn1 (stereo partly shown) [a-02-01] | 2.33 nM | 0.012 µM | 
19 | Cc1ncc(-c2ccc3ncc4cc3c2OCCCOC(=O)C2CC(CC(C)N2C)N4)cn1 (stereo not shown) [a-02-07] | 2.04 nM | 0.033 µM | 

Row | Compound | IC50 [3] | IC50 ([4]; Homo sapiens, THP-1, 4 h) | further results
20 | CCCOCc1ncc(-c2ccc3ncc4nc3c2OCCCCCNC(=O)[C@@H]2C[C@H](CCN2C)N4)cn1 [a-01-27] | 4.25 nM | 0.145 µM | 
21 | Cc1ncc(-c2ccc3ncc4cc3c2OCC(F)CNC(=O)[C@@H]2C[C@H](CC(C)N2C)N4)cn1 (stereo partly shown) [a-02-09] | 0.86 nM | 0.036 µM | 
22 | CCC(O)COCc1ncc(-c2ccc3ncc4cc3c2OCCCOC(=O)[C@@H]2C[C@H](CCN2C)N4)cn1 (stereo partly shown) [a-02-08] | 5.73 nM | 0.036 µM | 
23 | CN1CC[C@H]2C[C@H]1C(=O)NCCCOc1c(-c3cnsc3)ccc3ncc(nc13)N2 [a-01-14] | 1.73 nM | 0.08 µM | 
24 | CN1CC[C@H]2C[C@H]1C(=O)NCCCOc1c(-c3cnc(COCC4CC4)nc3)ccc3ncc(nc13)N2 [a-01-21] | 2.29 nM | 0.117 µM | 
25 | Cc1ncc(-c2ccc3ncc4cc3c2OCC2(CC2)COC(=O)[C@@H]2C[C@H](CCN2C)N4)cn1 [a-02-19] | 3.9 nM | 0.102 µM | 
26 | CN1CC[C@H]2C[C@H]1C(=O)NCCCOc1c(-c3cncnc3)ccc3ncc(nc13)N2 [a-01-09] | 1.28 nM | 0.064 µM | 
27 | Cc1ncc(-c2ccc3ncc4nc3c2OCC2(CC2)COC(=O)[C@@H]2C[C@H](CCN2C)N4)cn1 [a-01-33] | 4.79 nM | 0.17 µM | 
28 | Cc1ncc(-c2ccc3ncc4nc3c2OCC(F)CNC(=O)[C@@H]2C[C@H](CCN2C)N4)cn1 (stereo partly shown) [a-01-41] | 10 nM |  | IC50 ([4]; 4 hours): 0.293 µM
29 | [2H]C([2H])([2H])N1CC[C@H]2C[C@H]1C(=O)NCC(F)COc1c(-c3cnc(COCCC)nc3)ccc3ncc(cc13)N2 (stereo partly shown) [a-02-06] | 2 nM | 0.024 µM | 
30 | Cc1ncc(-c2ccc3ncc4cc3c2OCCCOC(=O)[C@@H]2C[C@H](CCN2C)N4)cn1 [a-02-20] | 3.21 nM | 0.117 µM | 
31 | CC(C)(C)OC(=O)N1CC[C@H]2C[C@H]1C(=O)NCCCCc1c(OCc3ccccc3)ccc3ncc(cc13)N2 |  |  | ring closure, yield of all isomers ([1]; from CC(C)(C)OC(=O)N1CC[C@H](N)C[C@H]1C(=O)NCCCCc1c(OCc2ccccc2)ccc2ncc(Br)cc12, tBuBrettPhos Pd G3 / phosphazene base P2-Et, toluene, 29.3 mM, 25.0 °C): 39%
32 | CCN1CC[C@H]2C[C@H]1C(=O)NCCCOc1c(-c3cnc(CO)s3)ccc3ncc(nc13)N2 [a-01-16] | 1.25 nM | 0.092 µM | 
33 | CCCOCc1ncc(-c2ccc3ncc4cc3c2OCC(F)COC(=O)[C@@H]2C[C@H](CCN2C)N4)cn1 (stereo partly shown) [a-02-14] | 6.46 nM | 0.058 µM | 
34 | Cc1ncc(-c2ccc3ncc4nc3c2OCC(F)COC(=O)[C@@H]2C[C@H](CCN2C)N4)cn1 (stereo partly shown) [a-01-20] | 1.15 nM | 0.113 µM | 
35 | CN1CC[C@H]2C[C@H]1C(=O)NCC1(CC1)COc1c(-c3cncnc3)ccc3ncc(nc13)N2 [a-01-03] | 2.11 nM | 0.045 µM | 
36 | Cc1ncc(-c2ccc3ncc4cc3c2OCCCOC(=O)[C@@H]2C[C@H](CCN2)N4)cn1 [a-02-18] | 1.66 nM | 0.081 µM | 
37 | Cc1ncc(-c2ccc3ncc4cc3c2OCCCNC(=O)[C@@H]2C[C@H](CCN2C)N4)cn1 [a-02-21] | 2.2 nM | 0.135 µM | 
